This is an account of results in US9815846B2 (Merck Sharp & Dohme Corp., priority 2014, dated 2017).

The structures appear in SMILES notation.

Broadly, the IC50 is the concentration that gives 50% inhibition.

In this assay the target is human TrkA receptor (Homo sapiens (Human), UniProt P04629). In words: DiscoverX PathHunter TrkA functional assay (NGF-stimulated U2OS cells). Type of assay: cell-based. Conditions: U2OS cells expressing human TrkA-PK, Shc1-EA and p75NTR; compound 1 h, then NGF at ~80% of maximal response for 3 h; luminescence.
human TrkA receptor, sequence (P04629 33-796): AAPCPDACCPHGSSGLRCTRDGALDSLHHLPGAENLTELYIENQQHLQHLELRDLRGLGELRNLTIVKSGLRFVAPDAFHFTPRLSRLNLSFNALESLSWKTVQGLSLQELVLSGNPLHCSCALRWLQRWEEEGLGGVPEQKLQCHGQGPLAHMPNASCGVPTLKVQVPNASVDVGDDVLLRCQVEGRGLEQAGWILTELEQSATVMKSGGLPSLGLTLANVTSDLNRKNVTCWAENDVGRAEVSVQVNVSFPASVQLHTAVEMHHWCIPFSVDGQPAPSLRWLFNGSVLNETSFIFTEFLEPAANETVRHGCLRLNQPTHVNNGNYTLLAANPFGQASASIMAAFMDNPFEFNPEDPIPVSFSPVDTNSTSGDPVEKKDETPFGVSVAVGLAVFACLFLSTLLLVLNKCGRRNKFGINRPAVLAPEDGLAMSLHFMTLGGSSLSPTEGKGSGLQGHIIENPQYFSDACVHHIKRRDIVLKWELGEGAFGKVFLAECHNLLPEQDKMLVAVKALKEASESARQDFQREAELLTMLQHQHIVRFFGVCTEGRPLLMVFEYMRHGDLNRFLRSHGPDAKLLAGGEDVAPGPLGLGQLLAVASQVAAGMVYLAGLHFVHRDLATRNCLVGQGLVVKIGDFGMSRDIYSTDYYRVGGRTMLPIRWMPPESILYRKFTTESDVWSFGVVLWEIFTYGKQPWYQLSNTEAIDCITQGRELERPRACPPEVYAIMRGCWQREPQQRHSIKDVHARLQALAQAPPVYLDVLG
Experimental: TrkA functional activity was measured using a DiscoverX PathHunter assay. In this assay, U2OS cells express the human TrkA receptor as a fusion with the weakly complementing fragment of B-galactosidase, which DiscoverX calls “Prolink (PK)”; additionally, Shcl is fused with a larger fragment, which is called “Enzyme Acceptor (EA)”. Activation of the TrkA receptor, upon NGF addition, results in the kinase domain being phosphorylated, resulting in subsequent recruitment of Shcl-EA protein. That recruitment results in an active B-galactosidase enzyme that is detected by addition of a chemiluminescent substrate. The human p75^NTR protein was also expressed as a co-receptor for NGF.
All reagents were purchased from DiscoverX, except for the receptor agonists (NGF, BDNF, NT3) which were purchased from Peprotech. Cells were expanded and frozen into cryovials, and stored in the vapor phase of liquid nitrogen, and thawed immediately before use. Thawed cells were added to a 384-well plate at 7500 cells/well, and allowed to incubate overnight. Compound at various concentrations was added the following morning and allowed to incubate on cells for 1 h. Then, NGF was added at a concentration sufficient to elicit ˜80% of a maximal response and allowed to incubate for 3 h at ambient temperature. DiscoverX PathHunter detection reagent was then added and the plate was further incubated for 1 h in the dark. The plate was then read via luminescence on the Perkin Elmer Envision.
`O=C(Nc1cc(Cc2cnco2)cnc1-c1ccccc1)c1cc(-c2ncccn2)c(C(F)(F)F)cc1F` [Example 204, 2-fluoro-N-(5-(oxazol-5-ylmethyl)-2-phenylpyridin-3-yl)-5-(pyrimidin-2-yl)-4-(trifluoromethyl)benzamide] showed an IC50 of 8.3 nM.

As to `Cn1ccc(-c2cc(C(=O)Nc3cnc(Cc4nnc[nH]4)nc3-c3ccccc3)c(F)cc2C(F)(F)F)n1` [Example 129, N-(2-((4H-1,2,4-Triazol-3-yl)methyl)-4-phenylpyrimidin-5-yl)-2-fluoro-5-(1-methyl-1H-pyrazol-3-yl)-4-(trifluoromethyl)benzamide], the IC50 was found to be 0.25 nM.

The compound `Cn1ccc(-c2cc(C(=O)Nc3cnc(C(O)C(N)=O)nc3-c3ccccc3)c(F)cc2C(F)(F)F)n1` (stereo not drawn) [Example 118, N-(2-(2-amino-1-hydroxy-2-oxoethyl)-4-phenylpyrimidin-5-yl)-2-fluoro-5-(1-methyl-1H-pyrazol-3-yl)-4-(trifluoromethyl)benzamide] displayed an IC50 of 3.8 nM.

`Cn1ccc(-c2cc(C(=O)Nc3ccc(C4CCNC4=O)nc3-c3ccccc3)ccc2C(F)(F)F)n1` (single isomer, unassigned) [Example 186, (R or S)-3-(1-Methyl-1H-pyrazol-3-yl)-N-(6-(2-oxopyrrolidin-3-yl)-2-phenylpyridin-3-yl)-4-(trifluoromethyl)benzamide] showed an IC50 of 5 nM.

In turn, `Cn1ccc(-c2cc(C(=O)Nc3cnc(Cc4nnnn4C)nc3-c3ccccc3)c(F)cc2C(F)(F)F)n1` [Example 179, 2-Fluoro-5-(1-methyl-1H-pyrazol-3-yl)-N-(2-((1-methyl-1H-tetrazol-5-yl)methyl)-4-phenylpyrimidin-5-yl)-4-(trifluoromethyl)benzamide] had an IC50 of 1 nM.

`CN1CC(=O)N(Cc2ncc(NC(=O)c3cc(-c4ccn(C)n4)c(C(F)(F)F)cc3F)c(-c3ccccc3)n2)C1=O` [Example 95, 2-Fluoro-5-(1-methyl-1H-pyrazol-3-yl)-N-(2-((3-methyl-2,5-dioxoimidazolidin-1-yl)methyl)-4-phenylpyrimidin-5-yl)-4-(trifluoromethyl)benzamide] displayed an IC50 of 0.11 nM.

In turn, `Cc1ncc(NC(=O)c2cc(-c3ccn(C)n3)c(C(F)(F)F)cc2Cl)c(-c2ccccc2)n1` [Example 23, 2-chloro-N-(2-methyl-4-phenylpyrimidin-5-yl)-5-(1-methyl-1H-pyrazol-3-yl)-4-(trifluoromethyl)benzamide] came in with an IC50 of 1.1 nM.

For `Cn1ccc(-c2cc(C(=O)Nc3ccc(C4CN(C(=O)CN)C4)nc3-c3ccccc3)c(F)cc2C(F)(F)F)n1` [Example 207, 2-fluoro-N-(6-(1-glycylazetidin-3-yl)-2-phenylpyridin-3-yl)-5-(1-methyl-1H-pyrazol-3-yl)-4-(trifluoromethyl)benzamide], the IC50 was 1.1 nM.

`Cn1ccc(-c2cc(C(=O)Nc3ccc(CNC(=O)CS(C)(=O)=O)nc3-c3ccccc3)c(F)cc2C(F)(F)F)n1` [Example 59, 2-fluoro-5-(1-methyl-1H-pyrazol-3-yl)-N-(6-((2-(methylsulfonyl)acetamido)methyl)-2-phenylpyridin-3-yl)-4-(trifluoromethyl)benzamide] displayed an IC50 of 0.23 nM.

In turn, `Cn1ccc(-c2cc(C(=O)Nc3cnc(CC(=O)NCC4CCOC4)nc3-c3ccccc3)c(F)cc2C(F)(F)F)n1` (stereo not drawn) [Example 112, 2-fluoro-5-(1-methyl-1H-pyrazol-3-yl)-N-(2-(2-oxo-2-(((tetrahydrofuran-3-yl)methyl)amino)ethyl)-4-phenylpyrimidin-5-yl)-4-(trifluoromethyl)benzamide] yielded an IC50 of 6.5 nM.

Consider `Cc1cc(-c2nc(C)ncc2NC(=O)c2ccc(C(F)(F)F)c(-c3nc(C)cs3)c2)[nH]n1` [Example 18, N-[2-methyl-4-(3-methyl-1H-pyrazol-5-yl)pyrimidin-5-yl]-3-(4-methyl-1,3-thiazol-2-yl)-4-(trifluoromethyl)benzamide], for which the IC50 worked out at 330 nM.

Regarding `CC(=O)N1CC(c2ccc(NC(=O)c3cc(-c4ccn(C)n4)c(C(F)(F)F)cc3F)c(-c3ccccc3)n2)C1` [Example 208, N-(6-(1-acetylazetidin-3-yl)-2-phenylpyridin-3-yl)-2-fluoro-5-(1-methyl-1H-pyrazol-3-yl)-4-(trifluoromethyl)benzamide], the IC50 amounted to 3 nM.

`CC(=O)NCc1ncc(NC(=O)c2cc(-c3cc[nH]n3)c(C(F)(F)F)cc2F)c(-c2ccccc2)n1` [Example 54, N-(2-(acetamidomethyl)-4-phenylpyrimidin-5-yl)-2-fluoro-5-(1H-pyrazol-3-yl)-4-(trifluoromethyl)benzamide] yielded an IC50 of 9.3 nM.

`Cn1ccc(-c2cc(C(=O)Nc3ncc(CNC(=O)CO)nc3-c3ccccc3)c(F)cc2C(F)(F)F)n1` [Example 65, 2-fluoro-N-(5-((2-hydroxyacetamido)methyl)-3-phenylpyrazin-2-yl)-5-(1-methyl-1H-pyrazol-3-yl)-4-(trifluoromethyl)benzamide] showed an IC50 of 3.3 nM.

For `O=C(Nc1ccccc1-c1ccc(F)cc1)c1ccc(C(F)(F)F)cc1F` [Example 6, 2-fluoro-N-(4′-fluorobiphenyl-2-yl)-4-(trifluoromethyl)benzamide], inhibition was half-maximal at 4900 nM (IC50).

`Cn1ccc(-c2cc(C(=O)Nc3cnc(NC(=O)CO)nc3-c3ccccc3)c(F)cc2C(F)(F)F)n1` [Example 209, 2-Fluoro-N-(2-(2-hydroxyacetamido)-4-phenylpyrimidin-5-yl)-5-(1-methyl-1H-pyrazol-3-yl)-4-(trifluoromethyl)benzamide] came in with an IC50 of 2 nM.

Consider `C[C@H](O)C(=O)NCc1ncc(NC(=O)c2cc(-c3ccn(C)n3)c(C(F)(F)F)cc2F)c(-c2ccccc2)n1` [Example 48], for which half-maximal inhibition (IC50) was put at 1.1 nM.

For `CC(N)c1ccc(-c2cnc(-c3ccccc3)c(NC(=O)c3cc(-c4ccn(C)n4)c(C(F)(F)F)cc3F)c2)nc1` (stereo not drawn) [Example 178, N-(5-(1-aminoethyl)-6′-phenyl-[2,3′-bipyridin]-5′-yl)-2-fluoro-5-(1-methyl-1H-pyrazol-3-yl)-4-(trifluoromethyl)benzamide], the IC50 is 0.29 nM.

`Cn1ccc(-c2cc(C(=O)Nc3cnc(CNC(=O)CN4CCOC4=O)nc3-c3ccccc3)c(F)cc2C(F)(F)F)n1` [Example 70, 2-fluoro-5-(1-methyl-1H-pyrazol-3-yl)-N-(2-((2-(2-oxooxazolidin-3-yl)acetamido)methyl)-4-phenylpyrimidin-5-yl)-4-(trifluoromethyl)benzamide]: half-maximal inhibition (IC50) was put at 0.53 nM.

For the compound `Cn1ccc(-c2cc(C(=O)Nc3cnc(CN4C(=O)COC4=O)nc3-c3ccccc3)c(F)cc2C(F)(F)F)n1` [Example 97, N-(2-((2,4-dioxooxazolidin-3-yl)methyl)-4-phenylpyrimidin-5-yl)-2-fluoro-5-(1-methyl-1H-pyrazol-3-yl)-4-(trifluoromethyl)benzamide], the IC50 stood at 0.25 nM.

`Cn1ccc(-c2cc(C(=O)Nc3ccc(CN4CC5(COC5)C4)nc3-c3ccccc3)c(F)cc2C(F)(F)F)n1` [Example 183, N-(6-((2-oxa-6-azaspiro[3.3]heptan-6-yl)methyl)-2-phenylpyridin-3-yl)-2-fluoro-5-(1-methyl-1H-pyrazol-3-yl)-4-(trifluoromethyl)benzamide] showed an IC50 of 7 nM.

Compound `Cn1ccc(-c2cc(C(=O)Nc3cnc(CN4CCCCCC4=O)nc3-c3ccccc3)c(F)cc2C(F)(F)F)n1` [Example 221, 2-fluoro-5-(1-methyl-1H-pyrazol-3-yl)-N-(2-((2-oxoazepan-1-yl)methyl)-4-phenylpyrimidin-5-yl)-4-(trifluoromethyl)benzamide] gave an IC50 of 1.9 nM.

In the case of `Cn1ccc(-c2cc(C(=O)Nc3cnc(CCC(N)=O)nc3-c3ccccc3)c(F)cc2C(F)(F)F)n1` [Example 128, N-(2-(3-Amino-3-oxopropyl)-4-phenylpyrimidin-5-yl)-2-fluoro-5-(1-methyl-1H-pyrazol-3-yl)-4-(trifluoromethyl)benzamide], the IC50 was determined as 0.54 nM.

`C[C@@H](N)C(=O)NCc1ncc(NC(=O)c2cc(-c3ccn(C)n3)c(C(F)(F)F)cc2F)c(-c2ccccc2)n1` [Example 73, (R)-N-(2-((2-aminopropanamido)methyl)-4-phenylpyrimidin-5-yl)-2-fluoro-5-(1-methyl-1H-pyrazol-3-yl)-4-(trifluoromethyl)benzamide] yielded an IC50 of 1 nM.

Compound `Cn1ccc(-c2cc(C(=O)Nc3cc(S(C)(=O)=O)cnc3-c3ccccc3)c(F)cc2C(F)(F)F)n1` [Example 194, 2-Fluoro-5-(1-methyl-1H-pyrazol-3-yl)-N-(5-(methylsulfonyl)-2-phenylpyridin-3-yl)-4-(trifluoromethyl)benzamide] displayed an IC50 of 2.6 nM.

The compound `Cn1ccc(-c2cc(C(=O)Nc3cc(C(N)=O)nnc3-c3ccccc3)c(F)cc2C(F)(F)F)n1` [Example 94, 5-(2-fluoro-5-(1-methyl-1H-pyrazol-3-yl)-4-(trifluoromethyl)benzamido)-6-phenylpyridazine-3-carboxamide] returned an IC50 of 9.3 nM.

`Cc1cc(C)n(-c2ccc(Cl)c(C(=O)Nc3cnc(C)nc3-c3ccccc3)c2)n1` [Example 9, 2-chloro-5-(3,5-dimethyl-1H-pyrazol-1-yl)-N-(2-methyl-4-phenylpyrimidin-5-yl)benzamide] gave an IC50 of 140 nM.

For the compound `CNC(=O)Cc1ncc(NC(=O)c2cc(-c3ccn(C)n3)c(C(F)(F)F)cc2F)c(-c2ccccc2)n1` [Example 104, 2-fluoro-5-(1-methyl-1H-pyrazol-3-yl)-N-(2-(2-(methylamino)-2-oxoethyl)-4-phenylpyrimidin-5-yl)-4-(trifluoromethyl)benzamide], the IC50 turned out to be 0.76 nM.

Compound `CCn1c(Cc2ncc(NC(=O)c3cc(-c4ccn(C)n4)c(C(F)(F)F)cc3F)c(-c3ccccc3)n2)n[nH]c1=O` [Example 180, N-(2-((4-ethyl-5-oxo-4,5-dihydro-1H-1,2,4-triazol-3-yl)methyl)-4-phenylpyrimidin-5-yl)-2-fluoro-5-(1-methyl-1H-pyrazol-3-yl)-4-(trifluoromethyl)benzamide] had an IC50 of 3.2 nM.

On to `Cn1ccc(-c2cc(C(=O)Nc3ccc(CNC(=O)[C@@H]4CCC(=O)N4)nc3-c3ccccc3)c(F)cc2C(F)(F)F)n1` [Example 57, (S)-N-((5-(2-fluoro-5-(1-methyl-1H-pyrazol-3-yl)-4-(trifluoromethyl)benzamido)-6-phenylpyridin-2-yl)methyl)-5-oxopyrrolidine-2-carboxamide], for which the IC50 turned out to be 1.1 nM.
